Assay results taken from ChEMBL document CHEMBL3885861, “Open TG-GATES”.

Species: Rattus norvegicus
Experiment: Open TG-GATES - Regimen: Single
Format: toxicity, organism-based, Sprague-Dawley
Design: regimen Single, gender Male, age 6 weeks
Details: in vivo, po, route gavage; for gamma-GTP / ALP / ALT / AST / BUN / CRE / Ca / Cl / DBIL / GLC / IP / K / LDH / PL / RALB / TBIL / TC / TP / Na: tissue Plasma; for APTT / Bas / Eos / Fbg / Hb / Ht / Lym / MCH / MCHC / MCV / Mono / PT / Plat / RBC / Ret / WBC: tissue Blood; for KIDNEY_L / KIDNEY_R / KIDNEY_TOTAL: tissue Kidney; for LIVER: tissue Liver
[1] = 10 mg/kg, 24 h, dose level High

Q: Which results are given for `C#C[C@]1(O)CC[C@H]2[C@@H]3CCc4cc(O)ccc4[C@H]3CC[C@@]21C` [ETHINYL ESTRADIOL]?
A: gamma-GTP (3 mg/kg, 24 h, dose level Middle): 1 IU/L; TERMINAL_BW (10 mg/kg, 3 h, dose level High): 198.2 g; APTT (10 mg/kg, 3 h, dose level High): 15.3 s; Bas (10 mg/kg, 3 h, dose level High): 0%; Eos (10 mg/kg, 3 h, dose level High): 0.8%; Fbg (10 mg/kg, 3 h, dose level High): 270.4 mg/dL; Hb (10 mg/kg, 3 h, dose level High): 13 g/dL; Ht (10 mg/kg, 3 h, dose level High): 39.6%; Lym (10 mg/kg, 3 h, dose level High): 78.6%; MCH (10 mg/kg, 3 h, dose level High): 21.4 pg; MCHC (10 mg/kg, 3 h, dose level High): 32.9%; MCV (10 mg/kg, 3 h, dose level High): 65.2 fL; Mono (10 mg/kg, 3 h, dose level High): 3%; PT (10 mg/kg, 3 h, dose level High): 12.2 s; Plat (10 mg/kg, 3 h, dose level High): 115.1 x10_4/uL; RBC (10 mg/kg, 3 h, dose level High): 608.4 x10_4/ul; Ret (10 mg/kg, 3 h, dose level High): 9.5%; WBC (10 mg/kg, 3 h, dose level High): 93.6 x10_2/uL; KIDNEY_L (10 mg/kg, 3 h, dose level High): 0.9 g; KIDNEY_R (10 mg/kg, 3 h, dose level High): 0.9 g; KIDNEY_TOTAL (10 mg/kg, 3 h, dose level High): 1.8 g; LIVER (10 mg/kg, 3 h, dose level High): 8.6 g; ALP (10 mg/kg, 3 h, dose level High): 1437.2 IU/L; ALT (10 mg/kg, 3 h, dose level High): 44 IU/L; AST (10 mg/kg, 3 h, dose level High): 74 IU/L; BUN (10 mg/kg, 3 h, dose level High): 9.8 mg/dL; CRE (10 mg/kg, 3 h, dose level High): 0.2 mg/dL; Ca (10 mg/kg, 3 h, dose level High): 11.2 mg/dL; Cl (10 mg/kg, 3 h, dose level High): 105.8 meq/L; DBIL (10 mg/kg, 3 h, dose level High): 0.016 mg/dL; GLC (10 mg/kg, 3 h, dose level High): 182.8 mg/dL; IP (10 mg/kg, 3 h, dose level High): 9.7 mg/dL; K (10 mg/kg, 3 h, dose level High): 4 meq/L; LDH (10 mg/kg, 3 h, dose level High): 55 IU/L; PL (10 mg/kg, 3 h, dose level High): 139.8 mg/dL; RALB (10 mg/kg, 3 h, dose level High): 2.5 g/dL; TBIL (10 mg/kg, 3 h, dose level High): 0.044 mg/dL; TC (10 mg/kg, 3 h, dose level High): 73.4 mg/dL; TP (10 mg/kg, 3 h, dose level High): 5.3 g/dL; gamma-GTP (10 mg/kg, 3 h, dose level High): 1 IU/L; TERMINAL_BW (10 mg/kg, 6 h, dose level High): 197 g; APTT (10 mg/kg, 6 h, dose level High): 16.9 s; Bas (10 mg/kg, 6 h, dose level High): 0%; Eos (10 mg/kg, 6 h, dose level High): 1%; Fbg (10 mg/kg, 6 h, dose level High): 255.2 mg/dL; Hb (10 mg/kg, 6 h, dose level High): 12.8 g/dL; Lym (10 mg/kg, 6 h, dose level High): 72%; MCHC (10 mg/kg, 6 h, dose level High): 33.7%; MCV (10 mg/kg, 6 h, dose level High): 63 fL; PT (10 mg/kg, 6 h, dose level High): 12.5 s; Plat (10 mg/kg, 6 h, dose level High): 110.6 x10_4/uL; RBC (10 mg/kg, 6 h, dose level High): 605.4 x10_4/ul; Ret (10 mg/kg, 6 h, dose level High): 9.4%; WBC (10 mg/kg, 6 h, dose level High): 71.5 x10_2/uL; KIDNEY_L (10 mg/kg, 6 h, dose level High): 0.9 g; KIDNEY_R (10 mg/kg, 6 h, dose level High): 0.9 g; KIDNEY_TOTAL (10 mg/kg, 6 h, dose level High): 1.8 g; LIVER (10 mg/kg, 6 h, dose level High): 8 g; ALP (10 mg/kg, 6 h, dose level High): 1644.6 IU/L; ALT (10 mg/kg, 6 h, dose level High): 39.6 IU/L; AST (10 mg/kg, 6 h, dose level High): 78.6 IU/L; BUN (10 mg/kg, 6 h, dose level High): 7.6 mg/dL; CRE (10 mg/kg, 6 h, dose level High): 0.2 mg/dL; Ca (10 mg/kg, 6 h, dose level High): 10.7 mg/dL; Cl (10 mg/kg, 6 h, dose level High): 108.8 meq/L; DBIL (10 mg/kg, 6 h, dose level High): 0.018 mg/dL; IP (10 mg/kg, 6 h, dose level High): 10.5 mg/dL; LDH (10 mg/kg, 6 h, dose level High): 42.8 IU/L; Na (10 mg/kg, 6 h, dose level High): 145 meq/L; PL (10 mg/kg, 6 h, dose level High): 115.6 mg/dL; RALB (10 mg/kg, 6 h, dose level High): 2.6 g/dL; TBIL (10 mg/kg, 6 h, dose level High): 0.042 mg/dL; TC (10 mg/kg, 6 h, dose level High): 58.8 mg/dL; TP (10 mg/kg, 6 h, dose level High): 5.4 g/dL; gamma-GTP (10 mg/kg, 6 h, dose level High): 1 IU/L; TERMINAL_BW (10 mg/kg, 9 h, dose level High): 194.6 g; APTT (10 mg/kg, 9 h, dose level High): 15.5 s; Bas (10 mg/kg, 9 h, dose level High): 0.2%; Eos (10 mg/kg, 9 h, dose level High): 1%; Fbg (10 mg/kg, 9 h, dose level High): 262.8 mg/dL; Hb (10 mg/kg, 9 h, dose level High): 13.1 g/dL; Ht (10 mg/kg, 9 h, dose level High): 39%; Lym (10 mg/kg, 9 h, dose level High): 72%; MCH (10 mg/kg, 9 h, dose level High): 21.6 pg; MCHC (10 mg/kg, 9 h, dose level High): 33.6%; MCV (10 mg/kg, 9 h, dose level High): 64.5 fL; PT (10 mg/kg, 9 h, dose level High): 12.8 s; Plat (10 mg/kg, 9 h, dose level High): 104.1 x10_4/uL; RBC (10 mg/kg, 9 h, dose level High): 606 x10_4/ul; Ret (10 mg/kg, 9 h, dose level High): 8.6%; WBC (10 mg/kg, 9 h, dose level High): 82.4 x10_2/uL; KIDNEY_L (10 mg/kg, 9 h, dose level High): 0.9 g; KIDNEY_R (10 mg/kg, 9 h, dose level High): 0.8 g; KIDNEY_TOTAL (10 mg/kg, 9 h, dose level High): 1.7 g; LIVER (10 mg/kg, 9 h, dose level High): 7.2 g; ALP (10 mg/kg, 9 h, dose level High): 1741.8 IU/L; ALT (10 mg/kg, 9 h, dose level High): 40.8 IU/L; AST (10 mg/kg, 9 h, dose level High): 76.8 IU/L; BUN (10 mg/kg, 9 h, dose level High): 8 mg/dL; CRE (10 mg/kg, 9 h, dose level High): 0.2 mg/dL; Ca (10 mg/kg, 9 h, dose level High): 10.5 mg/dL; Cl (10 mg/kg, 9 h, dose level High): 109 meq/L; DBIL (10 mg/kg, 9 h, dose level High): 0.018 mg/dL; GLC (10 mg/kg, 9 h, dose level High): 188.2 mg/dL; IP (10 mg/kg, 9 h, dose level High): 10.1 mg/dL; K (10 mg/kg, 9 h, dose level High): 3.7 meq/L; LDH (10 mg/kg, 9 h, dose level High): 40.6 IU/L; Na (10 mg/kg, 9 h, dose level High): 146 meq/L; PL (10 mg/kg, 9 h, dose level High): 90.6 mg/dL; RALB (10 mg/kg, 9 h, dose level High): 2.4 g/dL; TBIL (10 mg/kg, 9 h, dose level High): 0.046 mg/dL; TC (10 mg/kg, 9 h, dose level High): 41.6 mg/dL; TP (10 mg/kg, 9 h, dose level High): 5.2 g/dL; TERMINAL_BW [1]: 197.9 g; Bas [1]: 0%; Eos [1]: 1%; Fbg [1]: 203.8 mg/dL; Hb [1]: 12.9 g/dL; Ht [1]: 38%; Lym [1]: 78.4%; MCH [1]: 22 pg; MCHC [1]: 34%; MCV [1]: 64.6 fL; Mono [1]: 4.4%; Plat [1]: 110.8 x10_4/uL; RBC [1]: 589.2 x10_4/ul; Ret [1]: 8.5%; WBC [1]: 92.3 x10_2/uL; KIDNEY_L [1]: 0.9 g; KIDNEY_R [1]: 0.9 g; KIDNEY_TOTAL [1]: 1.8 g; LIVER [1]: 9.4 g; ALP [1]: 1883.2 IU/L; ALT [1]: 42.8 IU/L; AST [1]: 71.6 IU/L; BUN [1]: 9 mg/dL; CRE [1]: 0.2 mg/dL; Ca [1]: 10.7 mg/dL; Cl [1]: 108.8 meq/L; DBIL [1]: 0.018 mg/dL; IP [1]: 7 mg/dL; K [1]: 4 meq/L; LDH [1]: 54.6 IU/L; PL [1]: 86.6 mg/dL; RALB [1]: 2.5 g/dL; TBIL [1]: 0.042 mg/dL; TC [1]: 32.4 mg/dL; TP [1]: 5.2 g/dL; gamma-GTP [1]: 1 IU/L
